Experimental data reported in patent US7008940B1, “Dihydrobenzofuran derivatives, process for the preparing thereof and agents” (Takeda Pharmaceutical Company Limited, priority 1999, dated 2006).
Where a name gives a salt, the structure may show the parent alone.

Tested on: lipid peroxidation in rat cerebral cortical homogeneates
Test: Inhibitory effect on lipid peroxidation in rat cerebral cortical homogenates (thiobarbituric acid method)
Type: biochemical
Details: lipoperoxide production in Jcl. Wistar rat cerebral cortex homogenate supernatant, 37° C. for 30 minutes, absorbance at 532 nm, vs DMSO-added group
Method: Inhibitory effect on lipid peroxidation in rat cerebral cortical homogeneates and oral administration to mouse.
Quantitative determination of lipoperoxide produced in brain homogenate was performed according to the method of Stocks et al. (Clin. Sci. Mol. Med. 47–215(1974)). As animals, brains of Jcl. Wistar male rats, 10–13 weeks age, were used. Rat cerebral cortices were obtained after decapitation, homogenized in an ice-cooled phosphate saline buffer (50 mM Ph 7.4) (Nichion Microhomogenizer, S-310E), centrifuged at 10,000 g for 10 minutes (Hitachi CF15D type, RT15A6 Anglerotor), and the supernatant was used in a test. This supernatant was diluted 3-fold with the same buffer. To this 1 mL were added 10 μL of test drugs dissolved in dimethyl sulfoxide (DMSO) to the final concentration of 0.0125, 0.025, 0.05, 0.10, 0.20, 0.40, 0.80 and 1.60 μM, respectively, which was incubated at 37° C. for 30 minutes. The reaction was stopped by addition of 200 μL of 35% perchloric acid, and centrifuged at 13,000 g for 10 minutes. To 1 mL of this supernatant was added 0.5 mL of 2-thiobarbituric acid (500 mg/100 mL) dissolved in 50% acetic acid, heated to boil at 95° C. for 15 minutes, which was determined by the absorbance at 532 nm. […]

Cc1c(C)c2c(c3c1NC(C)(C)C3)CC(C)(C)O2 [Example 3, 1,6,7,8-Tetrahydro-2,2,4,5,7,7-hexamethyl-2H-furo [3,2-e]indole oxalate]
IC50: 127 nM

Cc1c(C)c2c(c3c1NC(C)(C)C3)CC(C)(CN1CCC(NC(c3ccccc3)c3ccccc3)CC1)O2 (centres unmarked) [Example 11, N-(Diphenylmethyl)-1-[(1,6,7,8-tetrahydro-2,4,5,7,7-pentamethyl-2H-furo[3,2-e]indol-2-yl)methyl]-4-piperidineamine dihydrochloride]
IC50: 57 nM
